From patent US20090306207A1, “Treatment of Drug-Resistant Proliferative Disorders” (priority 2005, published 2009) come the findings set out here.

Where only a bound is given, the exact number is not on record here.

The nature of data set [1]: Toxicity in treated mice (body weight, signs). To be noted: 100 mg/kg daily intraperitoneal for 10 days. How it is done: Female athymic nude mice (ncr/ncr) were injected intravenously with 1×10^6 32Dcl3 cells expressing the mutant BCR-ABL^T315I via the tail vein.
Body weights of the test animals were taken every two days.

Data set [2] deals with 32Dcl3 cells expressing BCR-ABL Q252H. Briefly: Cell viability (trypan blue exclusion), BCR-ABL Q252H cells. Format: cell-based, murine. The settings on record: 72 hours.
The test system of data set [3] is 32Dcl3 cells transfected to express wild-type or imatinib-resistant forms of BCR-ABL. Briefly: Growth inhibition of the panel of cells expressing wild-type or imatinib-resistant forms of BCR-ABL. It counts as cell-based, murine.
Description: (§2) The expression of the BCR-ABL proteins was determined by Western blot and kinase assays.
(§3) The total number of viable cells was determined by trypan blue exclusion at 72 hours post-treatment. The percent viable cells compared to vehicle-treated controls was determined.
(§4) The wild type comprises 32Dcl3.BCR-ABL cells that ectopically expressed the wild-type p210^BCR-ABL oncoprotein. The total number of viable cells was determined by trypan blue exclusion at 72 hours post-treatment. The percent viable cells compared to vehicle-treated controls was determined.
Data set [4] deals with 32Dcl3 cells expressing BCR-ABL F311L. Briefly: Cell viability (trypan blue exclusion), BCR-ABL F311L cells.
Description: (§5) Mutations corresponding to those published in the literature (Shah et al., Oncogene, 22, 7389-7395 (2003)) were introduced into the bcr-abl cDNA, which was then introduced into actively proliferating 32Dcl3 cells (Rovera et al., Oncogene 1, 29-35 (1987)) according to the following procedure.
as §2
(§6) Transfectants were selected in the absence of IL-3.
as §3, §4
Data set [5] deals with 32Dcl3 cells expressing BCR-ABL M351T. Briefly: Cell viability (trypan blue exclusion), BCR-ABL M351T cells. It counts as cell-based, murine. The settings on record: Mus musculus, 72 hours.
In data set [6] the test system is 32Dcl3 cells expressing BCR-ABL E355G. Briefly: Cell viability (trypan blue exclusion), BCR-ABL E355G cells. To be noted: Mus musculus, 72 hours. Format: cell-based, murine.
The subject of data set [7] is 32Dcl3 cells expressing BCR-ABL L387M. Briefly: Cell viability (trypan blue exclusion), BCR-ABL L387M cells.
Description: as §2, §6, §3, §4
Data set [8] concerns 32Dcl3 cells expressing BCR-ABL E255K. The data set is described as follows: Cell viability (trypan blue exclusion), BCR-ABL E255K cells.
Description: as §2, §6, §3, §4
In data set [9] the test system is 32Dcl3 cells expressing BCR-ABL Y253F. The data set is described as follows: Cell viability (trypan blue exclusion), BCR-ABL Y253F cells.
Description: as §5, §2, §6, §3, §4
For data set [10], the system named is 32Dcl3 cells expressing BCR-ABL G250E. The data set is described as follows: Cell viability (trypan blue exclusion), BCR-ABL G250E cells.
Description: as §5, §2, §6, §3, §4
For data set [11], the system named is 32Dcl3 cells expressing BCR-ABL Y253H. Briefly: Cell viability (trypan blue exclusion), BCR-ABL Y253H cells. It counts as cell-based, murine. The settings on record: Mus musculus, 72 hours.
Data set [12] relates to 32Dcl3 cells expressing BCR-ABL H396P. The data set is described as follows: Cell viability (trypan blue exclusion), BCR-ABL H396P cells. It counts as cell-based, murine. The settings on record: Mus musculus, 72 hours.
Data set [13] relates to 32Dcl3 cells expressing BCR-ABL H396R. The data set is described as follows: Cell viability (trypan blue exclusion), BCR-ABL H396R cells. Format: cell-based, murine. To be noted: Mus musculus, 72 hours.
The test system of data set [14] is 32Dcl3 cells expressing BCR-ABL F359V. Briefly: Cell viability (trypan blue exclusion), BCR-ABL F359V cells. Format: cell-based, murine. To be noted: Mus musculus, 72 hours.
Data set [15] concerns 32Dcl3 cells expressing BCR-ABL T315I. The data set is described as follows: Cell viability (trypan blue exclusion), BCR-ABL T315I cells.
Description: as §5, §2, §6, §3, §4
Data set [16] deals with 32Dcl3 cells expressing BCR-ABL F317L. The data set is described as follows: Cell viability (trypan blue exclusion), BCR-ABL F317L cells. Format: cell-based, murine. To be noted: Mus musculus, 72 hours.
Data set [17] relates to 32Dcl3 cells expressing BCR-ABL E255V. Briefly: Cell viability (trypan blue exclusion), BCR-ABL E255V cells.
Description: as §5, §2, §6, §3, §4
Data set [18] has as its system 32Dcl3.BCR-ABL cells expressing wild-type p210 BCR-ABL. Briefly: Cell viability (trypan blue exclusion), cells expressing wild-type BCR-ABL. It counts as cell-based, murine. To be noted: for GI50: Mus musculus, 72 hours. How it is done: (§1) Cell viability was then determined by trypan blue exclusion.
Cells expressing the wild-type p210^BCA-ABL oncoprotein (32Dcl3.BCR-ABL) or the BCR-ABL mutations G250E, T315I or M351T, were incubated with varying concentrations of Compound 4 ((E)-1-(2-(4-bromobenzylsulfonyl)vinyl)-2,4-difluorobenzene).

The next data set has as its system 32D/BCR-ABL^T315I cells. The data set is described as follows: In vivo growth of cells expressing imatinib-resistant BCR-ABL T315I (blood smears). Further details: species or system athymic nude mice. To be noted: 100 mg/kg daily intraperitoneal; days 7 and 14; compared to vehicle and imatinib treated groups. How it is done:
Blood smears on the treated mice were performed 7 and 14 days after the start of treatments. One drop of blood from each mouse was smeared onto glass slides, air dried and stained with modified Wright stain (Sigma). The T315I cells in the blood were easily visible due to their blue staining and size difference. The number of T315I cells per 10 fields was determined by counting 10 fields of view containing an equal density of red blood cells using a 40× objective on an upright Olympus microscope.

Data set [19] relates to 32Dcl3 cells expressing BCR-ABL M244V. The data set is described as follows: Cell viability (trypan blue exclusion), BCR-ABL M244V cells. It counts as cell-based, murine. To be noted: Mus musculus, 72 hours.
The subject of a further data set is normal bone marrow cells. The data set is described as follows: Hematopoietic colony formation assay. It counts as in vivo, CD-1 mice. To be noted: 100 mg/kg intravenous; bone marrow cells extracted after 24 hrs. How it is done:
To examine the effects of Compound 1 on normal hematopoietic cell population in vivo, a dose of 100 mg/kg of this compound in normal saline (or saline alone as a control) was injected intravenously (tail vein injection) into CD-1 mice (10 animals per group). The effect on the in vitro hematopoietic colony formation of normal bone marrow cells derived from these mice was determined 24 hrs following administration. Bone marrow cells were extracted from the mice after 24 hrs and 2×10^5 cells were plated on methylcellulose containing appropriate cytokines for lineage specific colony formation. Colonies were counted after 5 to 14 days of incubation.

A further data set concerns CML K562 cells. The data set is described as follows: Cell viability (trypan blue exclusion), K562 cells. Format: cell-based. How it is done: K562 cells were maintained in RPMI (Roswell Park Memorial Institute) medium supplemented with 10% FBS and 1 U/ml penicillin-streptomycin.
as §1

Turning to `Cc1ccc(NC(=O)c2ccc(CN3CCN(C)CC3)cc2)cc1Nc1nccc(-c2cccnc2)n1` [imatinib, Imatinib], the loss of bodyweight in [1] is recorded as above 20%.

Turning to `COc1cc(OC)c(/C=C/S(=O)(=O)Cc2ccc(OC)c(NC(C)(C)C(=O)O)c2)c(OC)c1` [Compound 3, (E)-2-(5-((2,4,6-trimethoxystyryl-sulfonyl)methyl)-2-methoxyphenylamino)-2-methylpropanoic acid], the 50% growth inhibitory concentration (GI50) in [2] (Mus musculus) is 40 nM; in data set [4] (Mus musculus, 72 h) it was 70 nM; in [5], 60 nM; in data set [6] it was 50 nM; in data set [7] (Mus musculus, 72 h) it was 50 nM; in [8] (Mus musculus, 72 h), 50 nM. The GI50 came out at 70 nM in data set [9] (72 hours); 40 nM in data set [9] (Mus musculus, 72 h); 25 nM in [10] (Mus musculus, 72 h); 30 nM in data set [11]; 50 nM in data set [12]; 60 nM in data set [13]. Further, the GI50 in data set [14] was 70 nM; in data set [15] (Mus musculus, 72 h), 60 nM; in [16], 60 nM; in data set [17] (Mus musculus, 72 h), 50 nM; in [18] (Wild-type), 40 nM. For the same molecule, the “sensitivity to growth-inhibitory activity” value in [3] (cell lines listed in Table 3, various concentrations, 72 hours) is “sensitive”.

Turning to `COc1cc(OC)c(/C=C/S(=O)(=O)Cc2ccc(OC)c(NC(C)C(=O)O)c2)c(OC)c1` (centres unmarked) [Compound 1, (E)-2-(5-((2,4,6-trimethoxystyrylsulfonyl)methyl)-2-methoxyphenylamino) propanoic acid], the LD50 in data set [2] stood at 7.0 nM; in [4] (F311L, 72 hours) it was 6.8 nM; in data set [7] (L387M, 72 hours) it was 7.1 nM; in [8] (E255K, 72 hours), 8.4 nM; in data set [9] (72 hours), 6.8 nM; in data set [10] (G250E, 72 hours), 5.9 nM. For the same molecule, the LD50 in data set [15] (T315I, 72 hours) came to 7.5 nM; in data set [17] (E255V, 72 hours) it was 7.8 nM. Moreover, the “number of T315I cells in the blood” value with 32D/BCR-ABL^T315I cells was “significantly reduced”. Besides, in [3] (all transfected cell lines, including T315I mutant, various concentrations, 72 hours), the “sensitivity to growth inhibitory activity” value is on record as “extremely sensitive”. For the same molecule, the GI50 in [5] was determined as 7.8 nM; in data set [6], 7.8 nM; in data set [19], 7.8 nM; in data set [11] it was 7.8 nM; in [12] it was 7.9 nM; in data set [13], 6.8 nM. The GI50 in [14] was determined as 7.1 nM; in data set [16], 7.8 nM; in [18] (None (wt), trypan blue exclusion), 10 nM. Besides, the “colony formation of the erythroid, myeloid or lymphoid lineages” value with normal bone marrow cells is on record as “No reduction in colony formation”. Moreover, the “concentration inhibiting proliferation, fold less than that shown for imatinib” value in the data set on CML K562 cells (BCR-ABL+ cell lines (K562 and 32Dcl3.BCR-ABL)) is listed as 10 fold. Also, the “LD50 (loss of viability)” value fell in the range of 10 to 15 nM in the data set with CML K562 cells (K562 cells, 72 hours incubation) and 10 to 15 nM in data set [18] (32Dcl3.BCR-ABL cells, 72 hours incubation).

Consider `O=S(=O)(/C=C/c1ccc(F)cc1F)Cc1ccc(Br)cc1` [Compound 4, (E)-1-(2-(4-bromobenzylsulfonyl)vinyl)-2,4-difluorobenzene], for which, in data set [3] (wild-type, G250E, T315I or M351T, varying concentrations, 72 hours), the “sensitivity to growth-inhibitory activity” value was “sensitive”.

For the molecule `COc1cc(OC)c(/C=C/S(=O)(=O)Cc2ccc(OC)c(NCC(=O)O)c2)c(OC)c1` [Compound 2, (E)-2-(5-((2,4,6-trimethoxystyrylsulfonyl)methyl)-2-methoxyphenylamino) acetic acid], in data set [3] (cell lines listed in Table 2, 250 nM), the “sensitivity to growth-inhibitory activity” value is reported as “sensitive”.
